PMC6429183, “Identification of Compounds That Inhibit Estrogen-Related Receptor Alpha Signaling Using High-Throughput Screening Assays” (Molecules, 2019)
“And” between values parts separate entries of the source, which are not always exact repeats. Equal entries are not always repeated. Where two headings read alike, the source gives them in different places.

Key:
[1] = biological target: T1, ERRα with PGC-1α (PGC/ERR pathway) (Homo sapiens, UniProt P11474); assay: PGC/ERR reporter (luciferase) qHTS assay, PGC/ERR-HEK293; conditions: for EC50: mean ± SD, triplicate; for PGC/ERR-HEK293 Follow-Up Efficacy: follow-up screen; for PGC/ERR-HEK293 Follow-Up Efficacy / PGC/ERR-HEK293 Primary Efficacy: negative = antagonism, positive = agonism; for activity in the ERR/PGC assay: in words; for PGC/ERR-HEK293 Primary Efficacy: primary qHTS
T1 sequence (P11474 1-423): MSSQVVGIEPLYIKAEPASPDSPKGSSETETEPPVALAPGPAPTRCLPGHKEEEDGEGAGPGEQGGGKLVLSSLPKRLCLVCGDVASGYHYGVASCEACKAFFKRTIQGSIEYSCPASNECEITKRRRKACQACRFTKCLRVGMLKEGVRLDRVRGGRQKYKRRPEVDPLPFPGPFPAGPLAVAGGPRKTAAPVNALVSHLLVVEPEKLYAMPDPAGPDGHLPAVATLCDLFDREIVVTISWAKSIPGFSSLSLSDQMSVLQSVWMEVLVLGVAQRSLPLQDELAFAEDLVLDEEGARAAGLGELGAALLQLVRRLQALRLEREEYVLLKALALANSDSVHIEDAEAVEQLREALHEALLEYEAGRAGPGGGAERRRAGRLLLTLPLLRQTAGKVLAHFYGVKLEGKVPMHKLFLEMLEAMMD

cytochrome c = assay: qRT-PCR mRNA expression of ERR downstream gene cytochrome c; assay type: cell-based; conditions: ERR reporter cells, vs GAPDH, DMSO = 0%
Method: (§1) Total RNA was isolated from treated ERR reporter cells using an RNeasy Mini Kit (Qiagen, Germantown, MD, USA), homogenized using a QIAshredder (Qiagen), and reverse transcribed with a High-Capacity RNA-to-cDNA™ Kit (ThermoFisher Scientific, Inc.) following the manufacturers’ instructions. Expression of ERRα, COX8α, IDH3α, PPARα, COX4I1, and cytochrome c genes was normalized against GAPDH. All primers were purchased from ThermoFisher Scientific, Inc. Real-time PCR assays were performed in 384-well plates on a QuantStudio 5 (Applied Biosystems, Foster City, CA, USA) with TaqMan™ Gene Expression Master Mix (ThermoFisher Scientific, Inc.). Induction values were calculated using the equation: Fold = 2^ΔΔCt, where ΔCt represents the differences in cycle threshold numbers between each of the target genes and GAPDH, and ΔΔCt represents the relative change in these differences between control and treatment groups. Experimental data are presented as a mean of triplicate determinations ± SD. Statistical comparisons were made by t-test, while the statistical significance was set at p values of <0.05 (light blue), <0.01 (medium blue), and <0.001 (dark blue).

[2] = system: Nrf2/antioxidant response element (ARE); assay: Nrf2/ARE-HepG2 β-lactamase reporter agonist assay; assay type: cell-based; conditions: agonist mode, heatmap outcome
Method: After the assay plates were incubated at 37 °C for 5–6 h, 23 nL of compounds dissolved in DMSO or positive controls were transferred to the assay plates via a Wako Pintool station (Wako). Except for ARE and p53, all other assays received 1 µL/well agonist (10 nM R1881 for AR; 0.5 and 5 nM β-estradiol for ERα and ERβ respectively; 300 µM CDCA for FXR; 50 nM Rosiglitazone for PPARγ; and 5 nM R5020 for PR) or assay medium using a Flying Reagent Dispenser (FRD). The assay plates were incubated for 16 h (AR, Nrf2/ARE, ERβ, FXR, p53, and PR), 17 h (PPARγ), or 18 h (ERα) at 37 °C, and 1 µL/well LiveBLAzer™ FRET-B/G CCF4-AM substrate (ThermoFisher Scientific, Inc.) detection mix was added using an FRD and the plates were incubated at room temperature for 2 h. […] Data were expressed as the ratio of 460/530 nm emission values.

IDH3α = assay: qRT-PCR mRNA expression of ERR downstream gene IDH3α; assay type: cell-based; conditions: ERR reporter cells, vs GAPDH, DMSO = 0%
Method: as §1

[3] = biological target: T2, estrogen-related receptor alpha (ERRα) (Homo sapiens, UniProt P11474); assay: ERR reporter (luciferase) antagonist qHTS assay, ERR-HEK293; conditions: for EC50: mean ± SD, triplicate; for ERR-HEK293 Follow-Up Efficacy: follow-up screen; for ERR-HEK293 Follow-Up Efficacy / ERR-HEK293 Primary Efficacy: relative to XCT790 = −100%; for ERR-HEK293 Primary Efficacy: primary qHTS, DMSO = 0%
T2 sequence (P11474 1-423): T1 sequence (P11474 1-423)
Method: The ERR reporter HEK293 cells were cultured in high glucose DMEM medium (ThermoFisher Scientific, Inc., Waltham, MA, USA) supplemented with 10% fetal bovine serum (FBS; ThermoFisher Scientific, Inc.), 4 mM of L-glutamine (ThermoFisher Scientific, Inc.), 1 mM of sodium pyruvate (ThermoFisher Scientific, Inc.), 100 U/mL of penicillin and 100 mg/mL of streptomycin (ThermoFisher Scientific, Inc.). PGC/ERR reporter HEK293 cells were cultured in the same medium as the ERR reporter HEK293 cells with an additional 1 μg/mL puromycin (ThermoFisher Scientific, Inc.) as the selection marker for PGC-1α expression.
The DMSO-only compound plates at the beginning and end of the compound plate stack were used to correct the data set by applying an in-house pattern correction algorithm [90]. The half maximum inhibition values (IC50) for each compound and maximum response (efficacy) values were obtained by fitting the concentration-response curves of each compound to a four-parameter Hill equation [91]. […] For each reading, the activity outcome of a test compound was first categorized by the average curve rank from the triplicate runs and the reproducibility calls. The final activity outcome of each compound was based on the ERR antagonist readout activity and cell viability counter screen.

[4] = system: ERR reporter HEK293 cells; assay: CellTiter-Fluor cell viability assay multiplexed with ERR reporter assay; assay type: cell-based
Method: (§2) ERR or PGC/ERR reporter HEK293 cells suspended in culture medium without puromycin were dispensed at 2500 cells/5 μL/well in tissue culture–treated 1536-well white assay plates (Greiner Bio-One North America, Monroe, NC, USA) using a Thermo Scientific Multidrop Combi (ThermoFisher Scientific, Inc.). […] After the cells were incubated at 37 °C with 5% CO2 for 6 h, 23 nL of compounds or control, XTC790, was transferred into the assay plates using a Wako Pintool station (Wako Automation, San Diego, CA, USA). The assay plates were incubated at 37 °C for 18 h, followed by the addition of 5 μL ONE-Glo luciferase reagent (Promega, Madison, WI, USA) using a Flying Reagent Dispenser (Aurora Discovery, Carlsbad, CA, USA). After 30 min of incubation at room temperature, the luminescence intensity of the assay plates was quantified using a ViewLux plate reader (PerkinElmer, Shelton, CT, USA). The assays were performed three times for each compound concentration. These ERR and PGC/ERR reporter assays were multiplexed with the CellTiter-Fluor Cell Viability Assay (Promega), a fluorescence-based cell viability assay, to assess compound cytotoxicity.
The qHTS data were analyzed as described previously. […] The DMSO-only compound plates at the beginning and end of the compound plate stack were used to correct the data set by applying an in-house pattern correction algorithm. The half maximum inhibition values (IC50) for each compound and maximum response (efficacy) values were obtained by fitting the concentration-response curves of each compound to a four-parameter Hill equation [91]. […] For each reading, the activity outcome of a test compound was first categorized by the average curve rank from the triplicate runs and the reproducibility calls. The final activity outcome of each compound was based on the ERR antagonist readout activity and cell viability counter screen.

[5] = system: PGC/ERR reporter HEK293 cells; assay: CellTiter-Fluor cell viability assay multiplexed with PGC/ERR reporter assay; assay type: cell-based; conditions: for EC50: Homo sapiens; for PGC/ERR-HEK293 Follow-Up Viability EC50: follow-up screen
Method: as §2
The qHTS data were analyzed as described previously. Each titration point was normalized relative to the positive control compound (XCT790 = −100%) and DMSO-only wells (0%) according to the following equation: % Activity = [(Vcompound − VDMSO)/(VDMSO − Vpos)] × 100, where Vcompound denotes the compound well values, Vpos denotes the median value of the positive control wells, and VDMSO denotes the median values of the DMSO-only wells. The DMSO-only compound plates at the beginning and end of the compound plate stack were used to correct the data set by applying an in-house pattern correction algorithm. The half maximum inhibition values (IC50) for each compound and maximum response (efficacy) values were obtained by fitting the concentration-response curves of each compound to a four-parameter Hill equation [91]. Compounds were designated as Class 1–4 according to the type of concentration–response curve observed. For each reading, the activity outcome of a test compound was first categorized by the average curve rank from the triplicate runs and the reproducibility calls. The final activity outcome of each compound was based on the ERR antagonist readout activity and cell viability counter screen.

COX8α = assay: qRT-PCR mRNA expression of ERR downstream gene COX8α; assay type: cell-based; conditions: 2 µM; ERR reporter cells; vs GAPDH, DMSO = 0%
Method: as §1

COX4I1 = assay: qRT-PCR mRNA expression of ERR downstream gene COX4I1; assay type: cell-based; conditions: ERR reporter cells, vs GAPDH, DMSO = 0%
Method: as §1, with “Experimental data are presented as a mean of triplicate determinations ± SD. Statistical comparisons were made by t-test, while the statistical significance was set at p values of <0.05 (light blue), <0.01 (medium blue), and <0.001 (dark blue).” left out

PPARα = assay: qRT-PCR mRNA expression of ERR downstream gene PPARα; assay type: cell-based; conditions: 20 µM; ERR reporter cells; vs GAPDH, DMSO = 0%
[6] = PGC/ERR-HEK293 Follow-Up EC50, follow-up screen
[7] = PGC/ERR-HEK293 Primary EC50, primary qHTS, 18 h
[8] = ERR-HEK293 Follow-Up EC50, follow-up (confirmation) screen
[9] = ERR-HEK293 Primary EC50, primary qHTS, 18 h, 15 concentrations
[10] = Homo sapiens, HEK293, primary qHTS, viability counter screen, read-out: ERR-HEK293 Primary Viability EC50 (converted)
[11] = HEK293, primary qHTS, read-out: PGC/ERR-HEK293 Primary Viability EC50 (converted)

| EC50 [1, 6] [nM] | EC50 [1, 7] [nM] | PGC/ERR-HEK293 Follow-Up Efficacy [1] [%] | activity in the ERR/PGC assay [1] | PGC/ERR-HEK293 Primary Efficacy [1] [%] | EC50 [3, 8] [nM] | EC50 [3, 9] [nM] | ERR-HEK293 Follow-Up Efficacy [3] [%] | ERR-HEK293 Primary Efficacy [3] [%] | Structure (SMILES) | activity in the Nrf2-ARE assay [2] | EC50 [4, 10] [nM] | ERR-HEK293 Follow-Up Viability EC50 ([4]; follow-up screen, viability) | EC50 [5, 11] [nM] | PGC/ERR-HEK293 Follow-Up Viability EC50 [5] | further results |
| --- | --- | --- | --- | --- | --- | --- | --- | --- | --- | --- | --- | --- | --- | --- | --- |
| 10700 ± 2440 | 2100 ± 526 | 89.3 ± 19.5 | agonist activity | 62.9 ± 2.71 | 8120 ± 4420 | 9240 ± 8560 | −88.9 ± 6.62 | −115 ± 6.85 | COc1cc([C@@H]2c3cc4c(cc3[C@@H](O[C@@H]3O[C@@H]5CO[C@@H](C)O[C@H]5[C@H](O)[C@H]3O)[C@H]3COC(=O)[C@H]23)OCO4)cc(OC)c1O [Etoposide] | active agonists | 56300 | Inactive | 56300 | Inactive | Percent inhibition of mRNA gene expression, Cytochrome C (cytochrome c; 18 µM): 6.55 ± 3.18%; Percent inhibition of mRNA gene expression, IDH3α (IDH3α; 18 µM): 7.19 ± 23.5%; activity in the ERR assay ([3]; in words): antagonistic activity |
| 1570 ± 354 | 845 ± 97.1 | −61.5 ± 12.6 | antagonism | −68.4 ± 7.64 | 1600 ± 104 | 1060 ± 122 | −104 ± 7.68 | −90.9 ± 4.94 | Cc1nc(N)nc(N)c1-c1ccc(Cl)c(Cl)c1 [Methodichlorophen] | active agonists |  | Inactive |  | Inactive | Percent inhibition of mRNA gene expression, COX8α (COX8α): 17.1 ± 29.5%; Percent inhibition of mRNA gene expression, Cytochrome C (cytochrome c; 2 µM): 47.6% and 47.6 ± 7.45%; Percent inhibition of mRNA gene expression, IDH3α (IDH3α; 2 µM): 50.8% and 50.8 ± 8.69%; ERR-HEK293 Primary Efficacy ([3]; listed as methodichlorophen): −90.9%; ERR-HEK293 Primary Viability EC50 ([4]; primary qHTS, viability counter screen): Inactive; Percent inhibition of mRNA gene expression, COX4I1 (COX4I1; 2 µM): 12.5% and 12.5 ± 2.60%; PGC/ERR-HEK293 Primary Viability EC50 ([5]; primary qHTS): Inactive |
| 9.62 ± 4.52 | 16.9 ± 5.54 | −116 ± 12.7 | antagonism | −92.2 ± 11.8 | 16.7 ± 6.08 | 17 ± 7.81 | −125 ± 11.0 |  | CC(C)C[C@H](NC(=O)[C@H](Cc1ccccc1)NC(=O)c1cnccn1)B(O)O [Bortezomib] | active agonists | 65.6 |  | 62.8 |  | Percent inhibition of mRNA gene expression, Cytochrome C (cytochrome c; 20 µM): 48.3% and 48.3 ± 1.92%; Percent inhibition of mRNA gene expression, IDH3α (IDH3α; 20 µM): 17.6% and 17.6 ± 4.66%; Percent inhibition of mRNA gene expression, PPARα (PPARα): 14.0 ± 5.17%; EC50 ([4]; Homo sapiens, HEK293, follow-up screen, viability, read-out: ERR-HEK293 Follow-Up Viability EC50 (converted)): 78 nM; IC50 ([4]; Homo sapiens, HEK293, primary screen, concurrent with ERR antagonist assay): ~66 nM; Percent inhibition of mRNA gene expression, COX4I1 (COX4I1; 20 µM): 35.3 ± 3.49%; EC50 ([5]; HEK293, follow-up screen, read-out: PGC/ERR-HEK293 Follow-Up Viability EC50 (converted)): 64.3 nM |
